Measured values published in paper PMC8956739, “A synthetic lipopeptide targeting top-priority multidrug-resistant Gram-negative pathogens” (Nature Communications, 2022).
In brackets after ≈: the same amount, converted by molar mass. Several values for one entry are separate records, joined by “and”; a condition that tells them apart may be missing. Identical values can stand only once. Like-named read-outs stand apart in the source and are kept apart here. Residues, ends and D or L forms follow the SMILES beside them.

Key:
[1] = system: P. aeruginosa PAM2035; assay type: cell-based, Pseudomonas aeruginosa; details: nitrocefin hydrolysis, without Mg2+
Description: Bacterial strains were seeded in 50 mL of Luria-Bertani (LB) broth at OD600 0.05 and grown at 37 °C for 3-4 h until an OD600 of 0.6–0.8 was achieved. Bacterial cells were washed twice with 25 mL of buffer (50 mM sodium phosphate, 0.5% glucose, pH 7, with or without 1 mM Mg^2+), resuspended in 10 mL of the buffer, and then adjusted to an OD600 of 0.4. […] Bacterial suspension (50 μL, OD600 0.4) in buffer was added to the lipopeptide solutions and the rate of substrate hydrolysis was measured at 490 nm.
Activity of F365 and polymyxin B in the outer membrane permeabilization assay.
The outer and inner membranes of gram-negative bacteria are the sites of interaction and action of polymyxin antibiotics, respectively. These polycationic compounds bind to phosphate residues of lipid A and displace the magnesium and calcium ions that cross-bridge adjacent lipid A molecules thereby stabilizing the outer membrane. […]
as the main mechanism of action by polymyxin B and colistin. The outer membrane-permeabilizing effect of F365 at a wide range of concentrations was assessed by examining the rates of hydrolysis of a chromogenic β-lactam, nitrocefin, by intact cells of Pseudomonas aeruginosa. […]

[2] = system: A. baumannii FADDI-AB30; test: Neutropenic mouse thigh infection model; assay type: in vivo; details: for diff of mean Log10 CFU/lung, Pre-treament minus treatment / diff of mean Log10 CFU/lung, Vehicle minus treatment / Log10 CFU/lung, Thigh 1 / Log10 CFU/lung, Thigh 2 / Log10 CFU/lung, Thigh 3 / Log10 CFU/lung, Thigh 4: 45mg/kg/d; for Log10 CFU/lung, Thigh 1 / Log10 CFU/lung, Thigh 2 / Log10 CFU/lung, Thigh 3 / Log10 CFU/lung, Thigh 4: neutropenic mouse thigh infection; for Log10 CFU/lung, Thigh 1: Thigh 1 (Supp Fig. 4); for Log10 CFU/lung, Thigh 2: Thigh 2 (Supp Fig. 4); for Log10 CFU/lung, Thigh 3: Thigh 3 (Supp Fig. 4); for Log10 CFU/lung, Thigh 4: Thigh 4 (Supp Fig. 4)
Description: The experimental methodology for the neutropenic mouse thigh infection model was previously described in detail. Briefly, Swiss mice (female, 7-week-old, 22–28 g) were rendered neutropenic by intraperitoneal administration of cyclophosphamide 4 days (150 mg/kg) and 1 day (100 mg/kg) prior to inoculation. Thigh infection was established by the administration of a 50 µL bolus of early log-phase bacterial suspension (4 × 10^8 CFU/mL) directly into each thigh of two mice in each group (n = 4 thighs); this method is well accepted in antibiotic pharmacokinetic/ pharmacodynamic studies to minimize animal usage. Lipopeptide solutions were prepared in sterile saline. At 2 h after inoculation, mice were administered a lipopeptide or control solution via an intraperitoneal bolus injection at 15 mg/kg, three doses every 8 h. At 0 and 24 h after the administration, animals were euthanized and each thigh was collected and homogenized under sterile conditions. Homogenate was filtered and the filtrate was collected, serially diluted in sterile saline, and spread on nutrient agar plates. Agar plates were incubated at 37 °C overnight for bacterial colony counting and the bacterial load of both thighs (log10 CFU/thigh) in each mouse was calculated. In vivo efficacy was calculated as the difference of the log10 CFU/thigh values between the treated mice at 24 h and the pre-treatment (control) at 0 h (Δlog10 CFU/thigh = log10 [treated] CFU/thigh − log10 [pre-treatment] CFU/thigh).

[3] = system: P. aeruginosa FADDI-PA102; test: Neutropenic mouse pneumonia model, polymyxin-resistant isolate; assay type: in vivo; details: for Tukey HSD diff, Pre-treatment minus treated group (Log10 CFU/lung) / Tukey HSD diff, Vehicle minus treated group (Log10 CFU/lung): Fig. d; for Log10 CFU/lung: Figure 3d, individual mice
Description: (§1) The experimental methodology for the neutropenic mouse lung infection model was previously described in detail. Briefly, Swiss mice (female, 7-week-old, 22–28 g) were rendered neutropenic by intraperitoneal administration of cyclophosphamide, 4 days (150 mg/kg) and 1 day (100 mg/kg) prior to inoculation. Lung infection was established by the administration of 25 µL of early log-phase bacterial suspension (polymyxin-susceptible or resistant isolate, 4 × 10^7 CFU/mL), directly into the lungs via the trachea using a MicroSprayer™ device. Lipopeptide solutions were prepared in sterile saline. At 2 h after inoculation, mice (n = 3 or 4) were administered lipopeptide (45–240 mg/kg/d free base) or control (sterile saline) via an intraperitoneal or subcutaneous bolus injection in three divided doses every 8 h. At 0 or 24 h after the administration of lipopeptide solution or saline (control), animals were euthanized and lungs were collected and homogenized under sterile conditions. Homogenate was filtered and the filtrate was collected, serially diluted in sterile saline, and spread on nutrient agar plates. Agar plates were incubated at 37 °C overnight for bacterial colony counting and the bacterial load of the lung (log10 CFU/lung) in each mouse was calculated. In vivo efficacy was calculated as the difference of the log10 CFU/lung values between the treated mice at 24 h and the pre-treatment (control) at 0 h (Δlog10 CFU/lung = log10 [treated] CFU/lung − log10 [pre-treatment] CFU/lung).

[4] = system: K. pneumoniae FADDI-KP132 (mcr-1 positive); test: as above; assay type: in vivo; details: for Tukey HSD diff, Pre-treatment minus treated group (Log10 CFU/lung) / Tukey HSD diff, Vehicle minus treated group (Log10 CFU/lung): Fig. f; for Log10 CFU/lung: Figure 3f, individual mice
Description: as §1

[5] = system: A. baumannii FADDI-AB156; test: as above; assay type: in vivo; details: for Tukey HSD diff, Pre-treatment minus treated group (Log10 CFU/lung) / Tukey HSD diff, Vehicle minus treated group (Log10 CFU/lung): Fig. e; for Log10 CFU/lung: Figure 3e, individual mice
Description: as §1

[6] = system: A. baumannii FADDI-AB144; assay type: cell-based, Acinetobacter baumannii
Summary of the method: (§2)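 MICs came from broth microdilution in cation-adjusted Mueller–Hinton broth against clinical isolates. For surfactant binding, P. aeruginosa ATCC 27853 was additionally tested with 10% Survanta® (v/v, 2.5 mg/mL phospholipids) added to the polymyxin-containing broth.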

[7] = system: A. baumannii FADDI-AB051; assay type: cell-based, Acinetobacter baumannii
Summary of the method: as §2

CC[C@@H]1NC(=O)[C@@H](CC(C)C)NC(=O)[C@H](CCN)NC(=O)[C@@H](NC(=O)[C@H](CN)NC(=O)[C@@H](NC(=O)[C@H](CCN)NC(=O)c2ccc(Cl)cc2Cl)[C@@H](C)O)CCNC(=O)[C@H]([C@@H](C)O)NC(=O)[C@H](CCN)NC(=O)[C@H](CCN)NC1=O [Lipopeptide F365] (HELM PEPTIDE1{[O=C(c1ccc(Cl)cc1Cl)[*:2]].[Dab].T.[NC[C@H](N[*:1])C(=O)[*:2]].[Dab].[Dab].[dL].[Abu].[Dab].[Dab].T}$PEPTIDE1,PEPTIDE1,5:R3-11:R2$$$V2.0)
IC50 for membrane permeabilization [1]: 0.73 ± 0.07 µg/mL
reduction in CFU/thigh beyond polymyxin B ([2]; 45 mg/kg/d IP in 3 divided doses every 8 h, 24 h): > 2.0 log10 CFU/thigh
diff of mean Log10 CFU/lung, Pre-treament minus treatment ([2]; one way ANOVA comparison): 5.655 log10 CFU/thigh
diff of mean Log10 CFU/lung, Vehicle minus treatment ([2]; one way ANOVA comparison): 5.9625 log10 CFU/thigh
diff of mean Log10 CFU/lung, Polymyxin B minus F365 ([2]; both 45mg/kg/d, one way ANOVA comparison, Polymyxin B - F365): 2.515 log10 CFU/thigh
Log10 CFU/lung, Thigh 1 [2]: 2.83 log10 CFU/thigh
Log10 CFU/lung, Thigh 2 [2]: 0 log10 CFU/thigh
Log10 CFU/lung, Thigh 3 [2]: 3.13 log10 CFU/thigh
Log10 CFU/lung, Thigh 4 [2]: 0 log10 CFU/thigh
Tukey HSD diff, Pre-treatment minus treated group (Log10 CFU/lung) ([3]; 120mg/kg/d): 0.69
Tukey HSD diff, Vehicle minus treated group (Log10 CFU/lung) ([3]; 120mg/kg/d): 1.074
Tukey HSD diff, Pre-treatment minus treated group (Log10 CFU/lung) ([3]; 240mg/kg/d): 3.307
Tukey HSD diff, Vehicle minus treated group (Log10 CFU/lung) ([3]; 240mg/kg/d): 3.691
Log10 CFU/lung ([3]; 120mg/kg/d): 6.56 Log10 CFU/lung and 6.03 Log10 CFU/lung and 7.00 Log10 CFU/lung
Log10 CFU/lung ([3]; 240mg/kg/d): 4.07 Log10 CFU/lung and 3.82 Log10 CFU/lung and 3.85 Log10 CFU/lung
reduction in CFU/lung ([4]; 240 mg/kg/d subcutaneously, 24 h, maximum over the polymyxin-resistant isolates): up to 4.65 log10 CFU/lung
Tukey HSD diff, Pre-treatment minus treated group (Log10 CFU/lung) ([4]; 120mg/kg/d): 1.795
Tukey HSD diff, Vehicle minus treated group (Log10 CFU/lung) ([4]; 120mg/kg/d): 4.6875
Tukey HSD diff, Pre-treatment minus treated group (Log10 CFU/lung) ([4]; 240mg/kg/d): 4.6475
Tukey HSD diff, Vehicle minus treated group (Log10 CFU/lung) ([4]; 240mg/kg/d): 7.54
Log10 CFU/lung ([4]; 120mg/kg/d): 4.02 Log10 CFU/lung and 5.39 Log10 CFU/lung and 2.64 Log10 CFU/lung and 2.94 Log10 CFU/lung
Log10 CFU/lung ([4]; 240mg/kg/d): 0.00 Log10 CFU/lung (2×) and 1.64 Log10 CFU/lung and 1.94 Log10 CFU/lung
Tukey HSD diff, Pre-treatment minus treated group (Log10 CFU/lung) ([5]; 120mg/kg/d): 2.4325
Tukey HSD diff, Vehicle minus treated group (Log10 CFU/lung) ([5]; 120mg/kg/d): 3.826
Tukey HSD diff, Pre-treatment minus treated group (Log10 CFU/lung) ([5]; 240mg/kg/d): 4.209
Tukey HSD diff, Vehicle minus treated group (Log10 CFU/lung) ([5]; 240mg/kg/d): 5.603
Log10 CFU/lung ([5]; 120mg/kg/d): 4.13 Log10 CFU/lung and 5.08 Log10 CFU/lung and 3.12 Log10 CFU/lung
Log10 CFU/lung ([5]; 240mg/kg/d): 1.94 Log10 CFU/lung and 2.42 Log10 CFU/lung and 2.64 Log10 CFU/lung
MIC A. baumannii FADDI-AB144 ([6]; FADDI-AB144): 32 µg/mL (≈ 27.6 µM)
MIC A. baumannii FADDI-AB051 ([7]; FADDI-AB051): 0.5 µg/mL (≈ 0.431 µM)

Polymyxin B [reference compound]
IC50 for membrane permeabilization [1]: 1.15 ± 0.22 µg/mL
diff of mean Log10 CFU/lung, Pre-treament minus treatment ([2]; one way ANOVA comparison): 3.14 log10 CFU/thigh
diff of mean Log10 CFU/lung, Vehicle minus treatment ([2]; one way ANOVA comparison): 3.4475 log10 CFU/thigh
Log10 CFU/lung, Thigh 1 [2]: 5.16 log10 CFU/thigh
Log10 CFU/lung, Thigh 2 [2]: 5.25 log10 CFU/thigh
Log10 CFU/lung, Thigh 3 [2]: 3.38 log10 CFU/thigh
Log10 CFU/lung, Thigh 4 [2]: 2.23 log10 CFU/thigh
Tukey HSD diff, Pre-treatment minus treated group (Log10 CFU/lung) ([3]; 90mg/kg/d): -0.1967
Tukey HSD diff, Vehicle minus treated group (Log10 CFU/lung) ([3]; 90mg/kg/d): 0.1873
Log10 CFU/lung ([3]; 90mg/kg/d): 7.28 Log10 CFU/lung and 7.23 Log10 CFU/lung and 7.74 Log10 CFU/lung
Tukey HSD diff, Pre-treatment minus treated group (Log10 CFU/lung) ([4]; 90mg/kg/d): -1.82
Tukey HSD diff, Vehicle minus treated group (Log10 CFU/lung) ([4]; 90mg/kg/d): 1.0725
Log10 CFU/lung ([4]; 90mg/kg/d): 7.88 Log10 CFU/lung and 8.02 Log10 CFU/lung and 6.98 Log10 CFU/lung and 6.57 Log10 CFU/lung
Tukey HSD diff, Pre-treatment minus treated group (Log10 CFU/lung) ([5]; 90mg/kg/d): -1.5075
Tukey HSD diff, Vehicle minus treated group (Log10 CFU/lung) ([5]; 90mg/kg/d): -0.114
Log10 CFU/lung ([5]; 90mg/kg/d): 8.23 Log10 CFU/lung and 8.17 Log10 CFU/lung and 7.75 Log10 CFU/lung
MIC A. baumannii FADDI-AB144 ([6]; polymyxin-resistant): 16 µg/mL
MIC A. baumannii FADDI-AB051 ([7]; carbapenem-resistant): 0.5 µg/mL
